ChEMBL document CHEMBL1201862, “PubChem BioAssay data set” (2004)
Calls of active or inactive are those of the source. Unless noted, the calls are words filed in the database; no cut-off is given here.

Experiments:
Protein RecA [1] = target: T1, Protein RecA (Mycobacterium tuberculosis, UniProt P9WHJ3); assay: RecA Intein Measured in Biochemical System Using Plate Reader - 2047-02_Inhibitor_Dose_DryPowder_Activity. [Related pubchem assays (depositor defined):AID2223]; design: species or system Mycobacterium tuberculosis H37Rv
T1 sequence (P9WHJ3 whole entry): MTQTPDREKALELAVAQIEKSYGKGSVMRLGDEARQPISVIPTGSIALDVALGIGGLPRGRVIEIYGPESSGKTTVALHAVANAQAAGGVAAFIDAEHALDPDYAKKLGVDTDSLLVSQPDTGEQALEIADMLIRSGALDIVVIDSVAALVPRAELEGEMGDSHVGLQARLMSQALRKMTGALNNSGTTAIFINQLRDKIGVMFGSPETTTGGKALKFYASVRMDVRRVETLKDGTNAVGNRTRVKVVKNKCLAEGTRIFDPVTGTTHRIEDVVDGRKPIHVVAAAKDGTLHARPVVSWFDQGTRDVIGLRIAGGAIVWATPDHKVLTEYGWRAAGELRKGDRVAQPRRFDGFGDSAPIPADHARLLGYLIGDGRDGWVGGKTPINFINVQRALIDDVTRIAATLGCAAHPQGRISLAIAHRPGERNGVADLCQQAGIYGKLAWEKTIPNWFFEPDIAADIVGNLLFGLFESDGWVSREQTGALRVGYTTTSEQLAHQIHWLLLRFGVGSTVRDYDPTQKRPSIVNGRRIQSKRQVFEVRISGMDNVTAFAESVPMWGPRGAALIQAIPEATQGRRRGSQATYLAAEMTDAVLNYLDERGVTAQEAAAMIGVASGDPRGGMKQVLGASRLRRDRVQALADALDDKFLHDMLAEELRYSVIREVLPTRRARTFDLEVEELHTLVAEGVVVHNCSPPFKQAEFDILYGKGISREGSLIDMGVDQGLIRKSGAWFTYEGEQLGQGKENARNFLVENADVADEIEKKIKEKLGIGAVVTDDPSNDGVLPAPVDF

[2] = target: T2, Replicative DNA helicase DnaB (Mycobacterium tuberculosis, UniProt P9WMR3); assay: DnaB Intein secondary assay Measured in Biochemical System Using Plate Reader - 2047-04_Inhibitor_Dose_DryPowder_Activity. [Related pubchem assays (depositor defined):AID2223]
T2 sequence (P9WMR3 whole entry): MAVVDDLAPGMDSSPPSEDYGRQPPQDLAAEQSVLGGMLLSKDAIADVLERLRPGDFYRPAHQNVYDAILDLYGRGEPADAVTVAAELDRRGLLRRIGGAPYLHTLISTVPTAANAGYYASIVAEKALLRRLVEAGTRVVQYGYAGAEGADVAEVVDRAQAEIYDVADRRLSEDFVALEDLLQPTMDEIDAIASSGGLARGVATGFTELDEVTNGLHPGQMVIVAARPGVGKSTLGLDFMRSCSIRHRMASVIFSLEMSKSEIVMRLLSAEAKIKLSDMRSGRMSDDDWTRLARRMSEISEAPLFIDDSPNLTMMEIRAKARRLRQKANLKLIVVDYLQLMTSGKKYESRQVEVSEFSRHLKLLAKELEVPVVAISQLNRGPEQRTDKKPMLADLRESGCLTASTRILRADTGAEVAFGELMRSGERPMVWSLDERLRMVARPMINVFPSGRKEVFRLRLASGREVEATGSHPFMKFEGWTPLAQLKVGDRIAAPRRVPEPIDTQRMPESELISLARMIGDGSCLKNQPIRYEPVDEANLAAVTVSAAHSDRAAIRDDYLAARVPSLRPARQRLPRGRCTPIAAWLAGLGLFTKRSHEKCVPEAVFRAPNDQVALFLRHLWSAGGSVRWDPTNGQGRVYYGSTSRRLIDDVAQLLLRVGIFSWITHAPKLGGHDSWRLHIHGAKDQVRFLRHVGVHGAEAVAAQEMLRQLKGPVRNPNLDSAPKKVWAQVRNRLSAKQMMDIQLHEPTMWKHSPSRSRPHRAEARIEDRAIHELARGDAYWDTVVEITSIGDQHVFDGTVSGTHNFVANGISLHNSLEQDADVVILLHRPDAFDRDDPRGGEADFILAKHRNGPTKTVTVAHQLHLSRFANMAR

[3] = target: T2, Replicative DNA helicase DnaB; assay: DnaB intein splicing inhibitors, dose response, biochemical, cell-free fluorescence (AID 449749); type: functional
[4] = target: T3, Heat shock factor protein 1 (Mus musculus, UniProt P38532); assay: inhibition of MG132-induced HSE-luciferase signal, confirmation, cell-based, NIH3T3, luminescence, dose retest (AID 2382); type: functional;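 further: NIH3T3 fibroblasts with HSF1-driven luciferase reporter stressed by proteasome inhibitor MG132; luminescence from HSF1-driven luciferase expression after 8 hours of MG132 stress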
T3 sequence (P38532 whole entry): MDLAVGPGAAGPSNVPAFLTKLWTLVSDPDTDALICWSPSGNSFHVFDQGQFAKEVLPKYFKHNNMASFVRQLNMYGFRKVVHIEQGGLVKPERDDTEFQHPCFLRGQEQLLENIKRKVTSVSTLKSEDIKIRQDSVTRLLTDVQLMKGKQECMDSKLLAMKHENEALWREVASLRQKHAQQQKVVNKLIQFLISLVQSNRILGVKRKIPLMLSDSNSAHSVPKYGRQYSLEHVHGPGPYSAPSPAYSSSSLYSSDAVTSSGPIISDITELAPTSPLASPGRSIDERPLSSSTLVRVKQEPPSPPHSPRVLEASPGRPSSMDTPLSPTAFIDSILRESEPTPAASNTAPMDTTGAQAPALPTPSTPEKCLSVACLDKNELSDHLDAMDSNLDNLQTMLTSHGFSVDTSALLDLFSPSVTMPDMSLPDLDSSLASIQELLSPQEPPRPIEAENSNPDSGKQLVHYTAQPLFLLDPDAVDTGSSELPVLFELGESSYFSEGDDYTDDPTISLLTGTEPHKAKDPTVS

[5] = target: DNA damage-inducible transcript 3 protein (Mus musculus, UniProt P35639); type: functional, Cricetulus griseus
[6] = GFP fluorescence signal inhibitors, dose response, artefact control, biochemical, plate reader, dry powder (AID 493243)
Protein RecA [7] = target: T1, Protein RecA; assay: GFP-RecA MOA-DTT Measured in Biochemical System Using Plate Reader - 2047-05_Inhibitor_Dose_DryPowder_Activity. [Related pubchem assays (depositor defined):AID2223]; design: species or system Mycobacterium tuberculosis H37Rv
[8] = Intein inhibitors as potential Tuberculosis drugs, a cytotoxicity screen. [Related pubchem assays (depositor defined):AID2221, AID2223, AID434968, AID435010, AID449749, AID449750, AID489010]; type: functional
Protein RecA [9] = target: T1, Protein RecA; assay: Fluorescence Cell-Free Homogeneous Dose Retest to Identify Inhibitors of RecA-Intein Splicing Activity. [Related pubchem assays (depositor defined):AID2097, AID2223, AID489010, AID492950]; type: functional
SUMO-activating enzyme [10] = target: T4, SUMO-activating enzyme (Homo sapiens, UniProt Q9UBT2); assay: inhibitors of in vitro SUMOylation cascade, primary screen, biochemical, HTRF, uHTS (AID 2006); type: protein-complex assay
SUMO-activating enzyme [11] = target: T4, SUMO-activating enzyme; assay: SUMOylation inhibitor hit validation, confirmation, SUMOylation inhibitor project, biochemical, AlphaScreen (AID 2018); type: functional
cells [12] = type: functional, cell-based
cells [13] = type: functional, cell-based; remark: listed apart in the source
[14] = Luminescence Cell-Based Dose Retest to Confirm Inhibitors of Cancer Stem Cells. [Related pubchem assays (depositor defined):AID2717, AID2721]; type: functional; conditions: Homo sapiens
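Wherever CC50 is given: cells exposed to compound for 72 hours before luminescence readout.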

T4 sequence (Q9UBE0 whole entry): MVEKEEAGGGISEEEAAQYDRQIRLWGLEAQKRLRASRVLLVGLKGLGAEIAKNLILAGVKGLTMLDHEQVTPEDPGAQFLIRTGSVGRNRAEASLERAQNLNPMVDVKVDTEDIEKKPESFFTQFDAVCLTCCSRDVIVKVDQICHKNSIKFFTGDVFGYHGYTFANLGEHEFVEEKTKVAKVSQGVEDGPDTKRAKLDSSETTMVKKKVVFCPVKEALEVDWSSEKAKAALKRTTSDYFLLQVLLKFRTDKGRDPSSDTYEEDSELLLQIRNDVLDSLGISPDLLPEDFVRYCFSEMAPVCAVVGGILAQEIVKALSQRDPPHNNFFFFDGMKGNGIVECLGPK
T4 sequence (Q9UBT2 whole entry): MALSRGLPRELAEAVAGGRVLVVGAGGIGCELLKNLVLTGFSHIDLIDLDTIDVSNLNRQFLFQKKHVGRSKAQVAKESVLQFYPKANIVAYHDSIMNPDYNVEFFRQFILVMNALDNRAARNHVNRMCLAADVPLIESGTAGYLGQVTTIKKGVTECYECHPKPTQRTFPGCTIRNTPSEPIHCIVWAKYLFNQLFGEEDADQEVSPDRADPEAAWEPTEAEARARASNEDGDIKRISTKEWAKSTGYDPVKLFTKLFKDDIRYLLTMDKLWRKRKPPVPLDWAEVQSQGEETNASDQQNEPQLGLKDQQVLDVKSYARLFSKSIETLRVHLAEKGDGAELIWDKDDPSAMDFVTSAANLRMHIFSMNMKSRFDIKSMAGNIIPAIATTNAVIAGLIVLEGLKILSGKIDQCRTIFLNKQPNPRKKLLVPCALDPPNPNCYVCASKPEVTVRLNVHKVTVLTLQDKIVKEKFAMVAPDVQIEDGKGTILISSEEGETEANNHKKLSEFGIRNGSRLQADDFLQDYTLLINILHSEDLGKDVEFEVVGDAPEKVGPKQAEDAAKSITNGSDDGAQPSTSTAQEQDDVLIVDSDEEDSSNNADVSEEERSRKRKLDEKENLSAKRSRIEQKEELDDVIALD
Chain of DNA damage-inducible transcript 3 protein (P35639 whole entry): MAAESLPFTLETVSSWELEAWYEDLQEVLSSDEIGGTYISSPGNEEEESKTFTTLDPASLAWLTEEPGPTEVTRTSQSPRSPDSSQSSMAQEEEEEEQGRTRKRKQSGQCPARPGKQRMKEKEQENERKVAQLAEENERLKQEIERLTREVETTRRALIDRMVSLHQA

Row | Compound | AC50 (Protein RecA [1]) | AC50 [2] | AC50 [3] | EC50 [4] | Absolute IC50 (CHOP) [5] | AC50 [6] | AC50 (Protein RecA [7]) | CC50 [8] | EC50 (Protein RecA [9]) | IC50 (SUMO-activating enzyme [10]) | IC50 (SUMO-activating enzyme [11]) | EC50 (cells [12]) | EC50 (cells [13]) | AC50 [14]
1 | O=C(CCl)Nc1cn(-c2ccccc2)nc1-c1ccc(F)cc1 | 8.58 µM (active) | 101 µM (active) | 2.77 µM (active) | 6.91 µM (active) | 10 µM | 262 µM (active) | 29.4 µM (active) | 6.59 µM (active) | 2.77 µM (active) | – | – | – | – | –
2 | C/C(=N\OCc1nc2ccccc2c(=O)n1/N=C/c1cc([N+](=O)[O-])ccc1O)c1ccccc1 | – | – | – | – | – | – | – | – | – | 41.1 µM (active) | 5.22 µM (active) | 245 µM (active) | > 350 µM (not active) | 7.33 µM (active)
